Experimental data taken from patent US20090264306A1, “DNA METHYLATION BIOMARKERS IN LYMPHOID AND HEMATOPOIETIC MALIGNANCIES” (Curators of the University of Missouri, priority 2005, published 2009).

System: NHL lines RL, Daudi, DB, Raji, Granta 519 and Mec-1
Assay: Reactivation of methylated genes by DAC and TSA in NHL cell lines, real time RT-PCR
Type: cell-based, Human
Description: Cell Lines and Drug Treatments. Human NHL lines RL, Daudi, DB, Raji, Granta 519 and Mec-1 were maintained in RPMI 1640 media. The germinal center related cell line RL is derived from a patient with FL and the t(14,18) gene rearrangement (12), and Daudi and Raji cells are of germinal center derivation. The postgerminal center cell line DB is a DLBCL cell line that has undergone isotype switching (12). […] Granta 519 is an MCL cell line over-expressing cyclin D1 (13) and Mec-1 is a transformed B-CLL/SLL cell line (14). For gene reactivation experiments, cells were cultured in the presence of vehicle (PBS) or DAC (1.0 μM; medium changed every 24 h). After 4 days, cells were either harvested or further treated with TSA (1.0 μM) for 12 h and then harvested. Some cells were also treated with TSA alone for 12 h before harvest. Genomic DNA or total RNA was isolated using Qiagen™ kits (Qiagen, Valencia Calif.) and used for methylation and gene expression analysis, respectively.
Real-time RT-PCR. Total RNA (2 μg) was pre-treated with DNase I to remove potential DNA contaminants and reverse-transcribed in the presence of SuperScript III™ reverse transcriptase (Invitrogen, Carlsbad, Calif.). The generated cDNA was used for PCR amplification with the system described above. The Taqman™ probe and primer sets for real time PCR were purchased from Applied Biosystems (Foster City, Calif.). Separate parallel reactions were run for GAPDH cDNA using a series of diluted cDNA samples as templates to generate standardization curves. The mRNA levels were derived from the standardization curves and expressed as relative changes after normalization to those of GAPDH.

[1] = NHL cell lines, DAC 1.0 μM 4 days, TSA 1.0 μM 12 h, normalized to GAPDH, combination effect in most of the cell lines

With Nc1ncn([C@H]2C[C@H](O)[C@@H](CO)O2)c(=O)n1 [DAC, 5-aza-2-deoxycytidine] the CCND1 expression (Granta 519 cell line, DAC alone) was “down regulated”, the “CYP27B1 gene expression after treatment” value [1] was “weakly to moderately up-regulated” and the “RARβ2 gene expression after treatment” value [1] was “weakly to moderately up-regulated”.
